Patent US9907803B2, “Methods for treating attention deficit hyperactivity disorder” (REVIVA PHARMACEUTICALS, INC., priority 2014, dated 2018)
Where a name gives a salt, the structure may show the parent alone.

Target: 5-HT2A (Homo sapiens, UniProt P28223)
Assay: Radioligand binding assay, serotonin 5-HT2A
Conditions: 5-HT2A radioligand binding
Procedure: Two arylpiperazine derivatives of Formula (I) were tested in the in vitro pharmacological assays to evaluate their activities for dopamine D2 and D4, and serotonin 5-HT1A, 5-HT2A, 5-HT2B, 5-HT6 and 5-HT7 receptors.
Methods employed to evaluate the test compounds A and B in radioligand binding assays were adopted from the scientific literature references as shown in Table 1 to maximize reliability and reproducibility. Reference standards were run as an integral part of each assay to ensure the validity of the results obtained.
Literature References in Table 1: • 1. Gundlach, A. L., et al., Life Sciences 1984, 35:1981-1986. • 2. Hoyer, D., et al, Eur J Pharmacol, 1985, 118:13-23 • 3. Hall, D. a., et al, Brit J Pharmacol, 1997, 121:731-736. • 4. Carpenter, J. W., et al, (2002) Configuring radioligand receptor binding assays for HTS using scintillation proximity assay technology. Methods in Molecular Biology 190 High Throughput Screening: Methods and Protocols • [www.ncgc.nihgov/guidance/manualtoc.html] • 5. Van Tol, et al, nature 1992, 358:149-152. • 6. Bonhaus, D. W., et al, Brit J Pharmacol, 1995, 115:622-628. • 7. Monsma, F. J., et al, Mol Pharmacol, 1993, 43:320-327. • 8. Shen, Y. et al, J. Biol Chem, 1993, 268:18200-18204. • 9. Adham, N., et al, J Pharmacol Exp Ther, 1998, 287:508-514.

Sequence of 5-HT2A (P28223 whole entry): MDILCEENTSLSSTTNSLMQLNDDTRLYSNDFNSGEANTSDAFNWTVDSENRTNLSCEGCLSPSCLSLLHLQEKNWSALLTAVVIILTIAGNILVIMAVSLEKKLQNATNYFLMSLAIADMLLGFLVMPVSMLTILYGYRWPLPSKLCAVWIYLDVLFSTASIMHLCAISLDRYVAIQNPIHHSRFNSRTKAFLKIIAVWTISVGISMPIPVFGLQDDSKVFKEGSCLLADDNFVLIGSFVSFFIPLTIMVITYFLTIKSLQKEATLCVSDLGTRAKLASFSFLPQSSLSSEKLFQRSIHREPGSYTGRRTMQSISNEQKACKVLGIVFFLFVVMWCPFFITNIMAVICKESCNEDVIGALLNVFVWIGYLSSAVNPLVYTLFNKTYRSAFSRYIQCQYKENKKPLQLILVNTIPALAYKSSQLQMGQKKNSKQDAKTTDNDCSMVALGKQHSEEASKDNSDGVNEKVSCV

Work on `O=C1COc2ccc(OCCCCN3CCN(c4cccc(Cl)c4Cl)CC3)cc2N1` [Compound B, 6-(4-(4-(2,3-dichlorophenyl)piperazin-1-yl)butoxy)-2H-benzo[b][1,4]oxazin-3(4H)-one hydrochloride] yielded a Ki of 2.5 nM.
